According to patent US12606543B2, “Indole derivatives as serotonergic agents useful for the treatment of disorders related thereto” (priority 2023, dated 2026):

How the values were obtained:
Format in all cases: in vitro ADME
[1] = Liver microsomes stability, mouse; settings: for T1/2: <4.51 if % remaining at 30 min below 1%
Method: (§1) The objective of this study was to estimate in vitro metabolic stability of exemplary compounds of Formula (I) or a pharmaceutically acceptable salt, solvate, and/or prodrug thereof in pooled human, male rat, and male mouse liver microsomes. The concentrations of compounds in reaction systems were evaluated by LC-MS/MS for estimating the stability in pooled human, male rat, and male mouse liver microsomes. The in vitro intrinsic clearances of test compounds were determined as well.
(§2) A master solution in the “Incubation Plate” containing phosphate buffer, ultra-pure H2O, MgCl2 solution and liver microsomes was made according to Table 33. The mixture was pre-warmed at 37° C. water bath for 5 minutes.
(§3) 40 μL of 10 mM nicotinamide adenine dinucleotide phosphate (NADPH) solution was added to each well. The final concentration of NADPH was 1 mM. The negative control samples were prepared by replacing NADPH with 40 μL of ultra-pure H2O. Samples were prepared in duplicate. Negative controls were prepared in singlet.
(§4) The reaction was started with the addition of 4 μL of 200 μM exemplary test compounds of the disclosure or control compounds to each master solution to get the final concentration of 2 μM. This study was performed in duplicate.
(§5) Aliquots of 50 μL were taken from the reaction solution at 0, 15, 30, 45, and 60 minutes. The reaction solutions were stopped by the addition of 4 volumes of cold methanol with IS (100 nM alprazolam, 200 nM imipramine, 200 nM labetalol, and 2 μM ketoprofen). Samples were centrifuged at 3,220 g for 40 minutes. Aliquot of 90 μL of the supernatant was mixed with 90 μL of ultra-pure H2O and then was used for LC-MS/MS analysis.
(§6) LC/MS analysis was performed for all samples from this study using a Shimadzu liquid chromatograph separation system equipped with degasser DGU-20A5R; solvent delivery unit LC-30AD; system controller SIL-30AC; column oven CTO-30A; CTC Analytics HTC PAL System. Mass spectrometric analysis was performed using a Triple Quad™ 5500 instrument.
(§7) All calculations were carried out using Microsoft Excel. Peak area ratios of test compound to internal standard (listed in the below table) were determined from extracted ion chromatograms.
(§8) All calculations were carried out using Microsoft Excel. Peak areas were determined from extracted ion chromatograms. The slope value, k, was determined by linear regression of the natural logarithm of the remaining percentage of the parent drug vs. incubation time curve.
(§9) The in vitro half-life (in vitro t1/2) was determined from the slope value:
(§10) Conversion of the in vitro t1/2 (min) into the in vitro intrinsic clearance (in vitro CLint, in μL/min/mg proteins) was done using the following equation (mean of duplicate determinations): […]
as §1, with “solvate” for “solvate,”, “rat” for “rat,”
(§11) A master solution in the “Incubation Plate” containing phosphate buffer, ultra-pure H2O, MgCl2 solution and liver microsomes was made according to Table 67. The mixture was pre-warmed at 37° C. water bath for 5 minutes.
(§12) 40 μL of 10 mM NADPH solution was added to each well. The final concentration of NADPH was 1 mM. The negative control samples were prepared by replacing NADPH with 40 μL of ultra-pure H2O. Samples were prepared in duplicate. Negative controls were prepared in singlet
(§13) Aliquots of 50 μL were taken from the reaction solution at 0, 15, 30, 45 and 60 minutes. The reaction solutions were stopped by the addition of 4 volumes of cold methanol with IS (100 nM alprazolam, 200 nM imipramine, 200 nM labetalol and 2 μM ketoprofen). […]

[2] = Liver microsomes stability, rat; settings: for CLint / T1/2: 2 μM, 0.5 mg/mL, NADPH
Method: as §1, §2, §3, §4, §5, §6, §7, §8, §9, §10
as §1, with “solvate” for “solvate,”, “rat” for “rat,”
as §11, §12, §13

[3] = Liver microsomes stability, human
Method: as §1, §2, §3, §4, §5, §6, §7, §8, §9, §10
as §1, with “solvate” for “solvate,”, “rat” for “rat,”
as §11, §12
Aliquots of 50 μL were taken from the reaction solution at 0, 15, 30, 45 and 60 minutes. The reaction solutions were stopped by the addition of 4 volumes of cold methanol with IS (100 nM alprazolam, 200 nM imipramine, 200 nM labetalol and 2 μM ketoprofen).

[4] = Mouse liver microsomes, 2 μM, 0.5 mg/mL, NADPH
[5] = mouse liver microsomes, With Cofactors, 0 min
[6] = mouse liver microsomes, With Cofactors, 30 min
[7] = mouse liver microsomes, With Cofactors, 60 min
[8] = mouse liver microsomes, Without Cofactors, 0 min
[9] = mouse liver microsomes, Without Cofactors, 30 min
[10] = mouse liver microsomes, Without Cofactors, 60 min
[11] = Rat liver microsomes, With Cofactors, 0 min
[12] = Rat liver microsomes, With Cofactors, 30 min
[13] = Rat liver microsomes, With Cofactors, 60 min
[14] = Rat liver microsomes, Without Cofactors, 0 min
[15] = Rat liver microsomes, Without Cofactors, 30 min
[16] = Rat liver microsomes, Without Cofactors, 60 min
[17] = rat liver microsomes, With Cofactors, 0 min
[18] = rat liver microsomes, With Cofactors, 30 min
[19] = rat liver microsomes, With Cofactors, 60 min
[20] = rat liver microsomes, Without Cofactors, 0 min
[21] = rat liver microsomes, Without Cofactors, 30 min
[22] = rat liver microsomes, Without Cofactors, 60 min
[23] = human liver microsomes, With Cofactors, 0 min
[24] = human liver microsomes, With Cofactors, 30 min
[25] = human liver microsomes, With Cofactors, 60 min
[26] = human liver microsomes, Without Cofactors, 0 min
[27] = human liver microsomes, Without Cofactors, 30 min
[28] = human liver microsomes, Without Cofactors, 60 min
[29] = Human liver microsomes, 2 μM, 0.5 mg/mL, NADPH

## O=C(O)Cc1ccccc1Nc1c(Cl)cccc1Cl [Diclofenac]
[1]; Mouse liver microsomes
  Predicted hepatic CL: 54.78 mL/min/kg
  Scaled-up CLint: 140.00 mL/min/kg
[1]; [4]
  T1/2: 43.31 min
[1]; mouse liver microsomes
  Predicted hepatic CL: 56.11 mL/min/kg
  Scaled-up CLint: 149.03 mL/min/kg
[1]; mouse liver microsomes, 2 μM compound, 0.5 mg/mL microsomes
  CLint: 34.06 μL/min/mg protein
[1]; [5]
  Remaining Percentage: 100.00%
  Remaining Percentage (%) 0 min: 100.00%
[1]; [6]
  Remaining Percentage: 45.55%
  Remaining Percentage (%) 30 min: 45.55%
[1]; [7]
  Remaining Percentage: 33.71%
  Remaining Percentage (%) 60 min: 33.71%
[1]; [8]
  Remaining Percentage: 100.00%
  Remaining Percentage (%) 0 min: 100.00%
[1]; [9]
  Remaining Percentage: 89.49%
  Remaining Percentage (%) 30 min: 89.49%
[1]; [10]
  Remaining Percentage: 96.59%
  Remaining Percentage (%) 60 min: 96.59%
[2]; Rat liver microsomes
  Predicted hepatic CL: 41.25 mL/min/kg
  Scaled-up CLint: 163.16 mL/min/kg
  CLint: 91.05 μL/min/mg protein
  T1/2: 15.22 min
[2]; [11]
  Remaining Percentage (%) 0 min: 100.00%
[2]; [12]
  Remaining Percentage (%) 30 min: 11.86%
[2]; [13]
  Remaining Percentage (%) 60 min: 6.35%
[2]; [14]
  Remaining Percentage (%) 0 min: 100.00%
[2]; [15]
  Remaining Percentage (%) 30 min: 102.19%
[2]; [16]
  Remaining Percentage (%) 60 min: 100.63%
[2]; rat liver microsomes
  Predicted hepatic CL: 41.22 mL/min/kg
  Scaled-up CLint: 162.69 mL/min/kg
[2]; [17]
  Remaining Percentage: 100.00%
[2]; [18]
  Remaining Percentage: 11.86%
[2]; [19]
  Remaining Percentage: 6.35%
[2]; [20]
  Remaining Percentage: 100.00%
[2]; [21]
  Remaining Percentage: 102.19%
[2]; [22]
  Remaining Percentage: 100.63%
[3]; Human liver microsomes
  Predicted hepatic CL: 18.35 mL/min/kg
  Scaled-up CLint: 161.94 mL/min/kg
[3]; human liver microsomes
  Predicted hepatic CL: 18.38 mL/min/kg
  Scaled-up CLint: 164.18 mL/min/kg
[3]; [23]
  Remaining Percentage: 100.00%
  Remaining Percentage (%) 0 min: 100.00%
[3]; [24]
  Remaining Percentage: 5.01%
  Remaining Percentage (%) 30 min: 5.01%
[3]; [25]
  Remaining Percentage: 1.77%
  Remaining Percentage (%) 60 min: 1.77%
[3]; [26]
  Remaining Percentage: 100.00%
  Remaining Percentage (%) 0 min: 100.00%
[3]; [27]
  Remaining Percentage: 112.67%
  Remaining Percentage (%) 30 min: 112.67%
[3]; [28]
  Remaining Percentage: 96.67%
  Remaining Percentage (%) 60 min: 96.67%

## COc1ccc2[nH]cc(CCN(C)C)c2c1 [5-MeO-DMT]
[1]; Mouse liver microsomes
  Predicted hepatic CL: 54.19 mL/min/kg
  Scaled-up CLint: 136.21 mL/min/kg
[1]; [4]
  T1/2: 44.52 min
[1]; Mouse liver microsomes, 2 μM, 0.5 mg/mL, NADPH, >307.01 if % remaining at 30 min below 1%
  CLint: 31.13 μL/min/mg protein
[1]; [5]
  Remaining Percentage: 100.00%
  Remaining Percentage (%) 0 min: 100.00%
[1]; [6]
  Remaining Percentage: 61.84%
  Remaining Percentage (%) 30 min: 61.84%
[1]; [7]
  Remaining Percentage: 39.30%
  Remaining Percentage (%) 60 min: 39.30%
[1]; [8]
  Remaining Percentage: 100.00%
  Remaining Percentage (%) 0 min: 100.00%
[1]; [9]
  Remaining Percentage: 104.76%
  Remaining Percentage (%) 30 min: 104.76%
[1]; [10]
  Remaining Percentage: 95.24%
  Remaining Percentage (%) 60 min: 95.24%
[2]; Rat liver microsomes
  Predicted hepatic CL: 49.02 mL/min/kg
  Scaled-up CLint: 437.56 mL/min/kg
  CLint: 244.17 μL/min/mg protein
  T1/2: 5.68 min
[2]; [11]
  Remaining Percentage (%) 0 min: 100.00%
[2]; [12]
  Remaining Percentage (%) 30 min: 2.57%
[2]; [13]
  Remaining Percentage (%) 60 min: 0.36%
[2]; [14]
  Remaining Percentage (%) 0 min: 100.00%
[2]; [15]
  Remaining Percentage (%) 30 min: 49.55%
[2]; [16]
  Remaining Percentage (%) 60 min: 23.82%
[2]; [17]
  Remaining Percentage: 100.00%
[2]; [18]
  Remaining Percentage: 2.57%
[2]; [19]
  Remaining Percentage: 0.36%
[2]; [20]
  Remaining Percentage: 100.00%
[2]; [21]
  Remaining Percentage: 49.55%
[2]; [22]
  Remaining Percentage: 23.82%
[3]; Human liver microsomes
  Predicted hepatic CL: 18.09 mL/min/kg
  Scaled-up CLint: 143.22 mL/min/kg
[3]; [29]
  CLint: 114.19 μL/min/mg protein
  T1/2: 12.14 min
[3]; [23]
  Remaining Percentage: 100.00%
  Remaining Percentage (%) 0 min: 100.00%
[3]; [24]
  Remaining Percentage: 19.24%
  Remaining Percentage (%) 30 min: 19.24%
[3]; [25]
  Remaining Percentage: 3.25%
  Remaining Percentage (%) 60 min: 3.25%
[3]; [26]
  Remaining Percentage: 100.00%
  Remaining Percentage (%) 0 min: 100.00%
[3]; [27]
  Remaining Percentage: 18.58%
  Remaining Percentage (%) 30 min: 18.58%
[3]; [28]
  Remaining Percentage: 3.00%
  Remaining Percentage (%) 60 min: 3.00%
